The values below come from patent US6284910A, “Farnesyl pyrophosphate analogs” (University of Kentucky Research Foundation, priority 1999, dated 2001).

Entries after “also recorded” stand apart in the source; their conditions may differ.

In general, IC50 refers to the concentration that inhibits the measured activity by half.

For this test, the target named is T1, recombinant rat brain FTase (Rattus norvegicus, UniProt Q02293+Q04631).
T1 construct: 6xHis (N); made in house; host or cells: Sf9 insect cells (baculovirus)
Briefly: Inhibition of FTase-catalyzed transfer of [^3 H]farnesyl from [^3 H]FPP to H-Ras. The class given is biochemical. How it is done: FIG. 2. Differential Inhibition of Farnesyltransferase and CAAX Geranylgeranyltransferase by AGPP. The assay mixtures contained (in a final volume of 25 μl) various components as described in "Experimental Procedures". After incubation for 15 min at 37° C., the amount of [^3 H]prenyl group transferred to the appropriate protein substrate [H-Ras (CVLS) for FTase and H-Ras (CVLL) for CAAX GGTase] was measured by precipitation with ethanol-HCl. The assays contained 10 ng recombinant rat FTase, 5 μM H-Ras, and 0.6 μM [^3 H]FPP (33,000 dpm/pmol) or 100 ng recombinant rat CAAX GGTase, 5 μM H-Ras CVLL, and 1 μM [^3 H]GGPP (33,000 dpm/pmol) and the indicated concentration of unlabeled AGPP. The 100% of control values were 1.1 and 5.5 pmol of [^3 H]farnesyl or [^3 H]geranylgeranyl transferred per tube. Each value is the average of duplicate incubations and is representative of two separate experiments.
FIG. 3. Inhibition of Farnesyltransferase by AGPP and I-AGPP. The enzymatic activity was measured in the presence of the various concentrations of either AGPP or I-AGPP as described in […]. The 100% control values were 1.9 and 2 pmol. Each value is the average of duplicate incubations and is representative of three separate experiments.
Assay for Farnesyltransferase Activity--Farnesyltransferase activity was assayed by measuring the amount of [^3 H]farnesyl or [^3 H]anilinogeranyl transferred from [^3 H]FPP or [^3 H]AGPP to recombinant p21^H-ras, as described previously (31). Unless otherwise stated, each reaction mixture contained the following components in a final volume of 25 μl: 50 mM Tris (pH 7.4), 20 mM KCl, 0.2% octyl β-glucopyranoside, 1 mM dithiothreitol, 10-20 ng recombinant FTase, 5 μM p21^Ha-ras, 3 mM MgCl2, 50 μM ZnCl2, and 0.6 μM [^3 H]FPP (33,000 dpm/pmol; American Radiochemical Co.) or 0.1-5 μM [^3 H]AGPP (37,400 dpm/pmol). Following incubation for the indicated times at 37° C., the amount of [^3 H]prenyl transferred was measured by ethanol-HCl precipitation and filtration on glass fiber filters with modification as previously described (19). A blank value was determined in parallel incubation mixtures containing no enzyme. This blank value was subtracted from each reaction before calculating pmol [^3 H]prenyl transferred.
Inhibition of Farnesyltransferase by AGPP--AGPP was tested for its ability to inhibit recombinant rat brain FTase activity in vitro. AGPP inhibited FTase in a concentration dependent manner with an IC50 value of 0.6 μM (FIG. 2).
Kinetic analyses were carried out to investigate the mechanism of FTase inhibition by AGPP. […] The same Km value was observed when the Lineweaver-Burke plot was analyzed under different Ras and AGPP concentrations in the presence of a constant concentration of FPP. […] AGPP inhibition is reversible, since transfer of [^3 H]-FPP by FTase to Ras was restored by isolating the farnesyltransferase by gel filtration chromatography after preincubation in the presence of 50 μM AGPP (data not shown).
The assays contained 10 ng recombinant rat FTase, 5 μM H-Ras, and 0.6 μM [^3 H]FPP (33,000 dpm/pmol) or 100 ng recombinant rat CAAX GGTase, 5 μM H-Ras CVLL, and 1 μM [^3 H]GGPP (33,000 dpm/pmol) and the indicated concentration of unlabeled AGPP. The 100% of control values were 1.1 and 5.5 pmol of [^3 H]farnesyl or [^3 H]geranylgeranyl transferred per tube.

On to `C/C(=C\COP(=O)(O)OP(=O)(O)O)CC/C=C(\C)CNc1ccccc1` [AGPP, (E,E)-8-Aniline-3,7-dimethyl-2,6-octadiene pyrophosphate], for which, where the note is “0.6 μM [^3 H]FPP, 5 μM H-Ras, 37° C., 15 min”, the IC50 is 600 nM. Also, the “mechanism of FTase inhibition with respect to Ha-Ras protein” value (constant FPP, various Ras) is “noncompetitive inhibitor with respect to Ha-Ras protein; also recorded: did not apparently affect the Km value for the substrate protein Ha-Ras”. The “mechanism of FTase inhibition with respect to FPP” value (double reciprocal plots, various [^3 H]FPP, constant Ras) is recorded as “competitive inhibitor of FTase with respect to FPP; also recorded: changed the Km value for FPP but does not alter the Vmax; also recorded: potent competitive inhibitor”. The “reversibility of FTase inhibition” value (gel filtration after preincubation with 50 μM AGPP) is “reversible”. The “inhibition of FTase, in words” value (in vitro, unlabeled compound) is “competed at essentially the same concentrations”.
